Consider two molecules from patent publication US20060148030A1, “Nuclear receptor err y 3” (FUJISAWA PHARMACEUTICAL CO., LTD, priority 2002, published 2006).

The target of test [1] is T1, ERRγ1 (Homo sapiens, UniProt P62508).
T1 sequence (P62508 1-435 isoform P62508-2): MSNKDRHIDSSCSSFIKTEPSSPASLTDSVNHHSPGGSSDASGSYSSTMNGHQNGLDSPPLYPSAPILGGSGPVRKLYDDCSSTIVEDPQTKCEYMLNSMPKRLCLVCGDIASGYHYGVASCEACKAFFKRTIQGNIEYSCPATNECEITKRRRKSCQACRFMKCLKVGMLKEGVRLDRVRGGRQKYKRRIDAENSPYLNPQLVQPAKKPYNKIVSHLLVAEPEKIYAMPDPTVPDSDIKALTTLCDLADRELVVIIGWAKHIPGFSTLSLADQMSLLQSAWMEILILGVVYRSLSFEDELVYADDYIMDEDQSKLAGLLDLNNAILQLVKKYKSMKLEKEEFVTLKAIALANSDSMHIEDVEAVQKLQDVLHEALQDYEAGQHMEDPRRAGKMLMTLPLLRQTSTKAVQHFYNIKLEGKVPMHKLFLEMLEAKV
As to conditions: stated as known property; cited from earlier work.

For test [2], the target named is T2, ERα (Homo sapiens, UniProt P03372).
T2 construct: expressed in transfected cells; host or cells: CV-1 (African green monkey kidney)
T2 sequence (P03372 1-595): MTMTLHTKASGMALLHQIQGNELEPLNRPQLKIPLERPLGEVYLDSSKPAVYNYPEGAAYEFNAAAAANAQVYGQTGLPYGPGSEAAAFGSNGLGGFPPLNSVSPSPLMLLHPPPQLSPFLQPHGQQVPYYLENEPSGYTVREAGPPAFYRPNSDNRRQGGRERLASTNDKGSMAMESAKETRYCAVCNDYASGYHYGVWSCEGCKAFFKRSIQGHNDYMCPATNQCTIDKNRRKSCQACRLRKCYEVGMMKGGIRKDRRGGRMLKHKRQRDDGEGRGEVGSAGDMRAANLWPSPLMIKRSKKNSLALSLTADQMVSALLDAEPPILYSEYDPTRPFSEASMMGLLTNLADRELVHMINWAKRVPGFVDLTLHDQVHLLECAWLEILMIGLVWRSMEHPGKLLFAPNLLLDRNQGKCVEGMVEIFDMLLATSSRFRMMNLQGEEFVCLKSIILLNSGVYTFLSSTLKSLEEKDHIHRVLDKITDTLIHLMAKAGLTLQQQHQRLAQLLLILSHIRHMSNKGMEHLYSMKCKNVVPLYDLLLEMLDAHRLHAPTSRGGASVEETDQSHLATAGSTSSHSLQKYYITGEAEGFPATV
Kind of test: Reporter gene assay, ERRγ3 or ERRγ2 coexisted with ERα in CV-1 cells. The class given is cell-based. As to conditions: for enhancement of the transcriptional activation function of ERα: absence of 4-hydroxytamoxifen. The protocol: The reporter gene assay was performed using CV-1 cells (African green monkey kidney-derived cell line) as hosts. Host cells were transfected with luciferase reporter plasmids and expression plasmids for ERRγ3, ERRγ2, or both. They were then exposed to 4-hydroxytamoxifen at different concentrations (0, 10^−10 to −10^−5 M) for 24 hours, whereupon luciferase activity within the cells was measured.
Transfection was performed as follows: CV-1 cells were suspended at 2×10^5 cells/2.5 ml in DMEM medium supplemented with 10% fetal bovine serum, 2000 U/l of penicillin G, and 100 mg/l streptomycin. These cells were seeded to a 6-well plate at 2.5 ml/well, and cultured for 18 to 24 hours in a CO2 incubator at 37° C. in the presence of 5% CO2. 1 μg of each of the transcription factor expression plasmid, the luciferase reporter plasmid, and another luciferase reporter plasmid for normalizing the measured value (pRL-TK), were dissolved in Opti-MEM (Gibco BRL) to total of 150 μl. 7 μl of the cell transfection reagent LipofectAMINE 2000 (Gibco BRL) was diluted in 143 μl of Opti-MEM, and this was added to the mixture drop by drop while stirring. The mixture was incubated for 20 minutes.
The LipofectAMINE-DNA mixture was diluted in 1.5 ml of Opti-MEM, and added to cells that had been twice washed with 1 ml of PBS(−). The cells were cultured for four hours. The transfection reagent was removed from the culture, and 200 μl of trypsin/EDTA was added to the cells, which were then incubated at 37° C. for five minutes. […] of DMEM was added to suspend the cells, which were transferred to a centrifuge tube, and centrifuged for three minutes at 1000 rpm. After centrifugation, the cells were resuspended in DMEM to a concentration of 1.6×10^4 cells/100 μl, and 100 μl samples were seeded to a 96-well plate. When evaluating agents, a two-fold concentrated solution was made by pre-diluting a 1000 times concentrated agent DMSO solution with culture medium. 50 μl of the solution was mixed with 50 μl of a cell suspension at 1.6×10^4 cells/50 μl, and the culture was incubated in a CO2 incubator at 37° C. and 5% CO2 for 24 hours.
Luciferase activity was measured using the Dual-Luciferase™ Reporter Assay System (Promega). The culture supernatant was removed from each well of the 96-well plate and washed once with 100 μl of PBS(−). 20 μl of ×1 PLB (Passive Lysis Buffer) was added, and the mixture was incubated at room temperature for 15 minutes, and then stored at −20° C. in the freezer until use. […] The protocol for measurement was as follows: 50 μl of Luciferase Assay Reagent II was added to each well, stirred for 0.3 seconds and measured for one second. […] of Stop&Glo™ Reagent was then added, stirred for 0.3 seconds, and measured for one second. […] Average values and standard errors were calculated from triplicate samples.
To confirm whether or not ERRγ3 can regulate the transcription-controlling function of nuclear receptors other than ERRγ2, ERRγ3's function of regulating the transcription-controlling activity of nuclear receptors related to ERRγ (ERα, ERβ, and TR) was evaluated using a reporter gene assay. […] In addition to 4-hydroxytamoxifen, the cells were also contacted with 10^−5 M of (R)-estradiol in experiments related to ERα and ERβ, and 10^−5 M of thyroxine in the experiment related to TR.
The transfected cells were contacted with varying concentrations of 4-hydroxytamoxifen in the absence of […] or presence of 10^−7 M of β-estradiol.

Regarding 4-hydroxytamoxifen [reference compound], the “binding to ERRγ1” value in test [1] is recorded as “capable of binding”. The “effect of 4-hydroxytamoxifen on the function of ERRγ3 on ERα” value in test [2] (in the presence of the ligand, 10^−5 M (R)-estradiol, CV-1 cells) was “increased dependent on the concentration of 4-hydroxytamoxifen”. Besides, in test [2] (β-estradiol absent or 10^−7 M, 4-hydroxytamoxifen at high concentrations, FIGS. 19-20), the “effect of 4-hydroxytamoxifen on the transcription enhancing function of ERRγ3 on ERα” value is listed as “reduced in the presence of 4-hydroxytamoxifen at high concentrations”.

B1: ERRγ3: novel ERRγ isoform, nuclear receptor protein of 396 amino acids (SEQ ID NO: 2) lacking part of the DNA binding domain (protein, listed as Homo sapiens)
chain: MSNKDRHIDSSCSSFIKTEPSSPASLTDSVNHHSPGGSSDASGSYSSTMNGHQNGLDSPPLYPSAPILGGSGPVRKLYDDCSSTIVEDPQTKCEYMLNSMPKRLCLVCGDIASGYHYGVASCEACKAFFKRTIQGVRLDRVRGGRQKYKRRIDAENSPYLNPQLAQPAKKPYNKIVSHLLVAEPEKIYAMPDPTVPDSDIKALTTLCDLADRELVVIIGWAKHIPGFSTLSLADQMSLLQSAWMEILILGVVYRSLSFEDELVYADDYIMDEDQSKLAGLLDLNNAILQLVKKYKSMKLEKEEFVTLKAIALANSDSMHIEDVEAVQKLQDVLHEALQDYEAGQHMEDPRRAGKMLMTLPLLRQTSTKAVQHFYNIKLEGKVPMHKLFLEMLEAKV
On to B1, for which the “function enhancement of the transcription-controlling activity of ERα” value in test [2] (ERRγ3 with ERα, 10^−5 M (R)-estradiol, CV-1 cells, FIG. 16) was 13-74%. The “enhancement of the transcriptional activation function of ERα” value was 64% in test [2] (absence of β-estradiol, FIG. 19) and 18% in test [2] (presence of 10^−7 M β-estradiol, FIG. 20).
